Values of other authors in patent US20100098759A1, “CONTROLLED-RELEASE PREPARATION CONTAINING CILOSTAZOL AND PROCESS FOR THE PREPARATION THEREOF” (AMOREPACIFIC CORPORATION;, priority 2007, published 2010).

Q: For `O=C1CCc2cc(OCCCCc3nnnn3C3CCCCC3)ccc2N1` [Cilostazol], which water-solubility is on record?
A: ≤ 1 µg/mL
